Measured values taken from ChEMBL document CHEMBL5058643, “Data for DCP probe BI-2081” (2022).

Tests used:
[1] = target: T1, Alpha-1A adrenergic receptor (Homo sapiens) (UniProt P35348); assay: ALPHA1A/R Eurofins SafetyScreen44 (BI); details: Rattus norvegicus; Compound concentration 10.0 uM
T1 sequence (whole entry): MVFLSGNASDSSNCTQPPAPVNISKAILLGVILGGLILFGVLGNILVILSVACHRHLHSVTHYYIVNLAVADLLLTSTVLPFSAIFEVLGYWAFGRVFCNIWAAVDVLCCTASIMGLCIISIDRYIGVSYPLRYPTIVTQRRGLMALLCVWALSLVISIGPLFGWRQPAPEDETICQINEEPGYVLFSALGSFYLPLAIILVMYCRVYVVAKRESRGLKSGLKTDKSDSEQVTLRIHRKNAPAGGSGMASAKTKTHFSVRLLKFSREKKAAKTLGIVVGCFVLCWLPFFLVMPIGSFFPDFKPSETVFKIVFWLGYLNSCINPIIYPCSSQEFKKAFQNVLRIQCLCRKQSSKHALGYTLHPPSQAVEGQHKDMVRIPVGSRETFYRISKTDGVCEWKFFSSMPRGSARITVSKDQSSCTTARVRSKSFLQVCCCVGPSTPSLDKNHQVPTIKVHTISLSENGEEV

[2] = target: D(3) dopamine receptor (Homo sapiens) (UniProt P35462); assay: D3/HU Eurofins SafetyScreen44 (BI); details: Compound concentration 10.0 uM
D(3) dopamine receptor (Homo sapiens), sequence (P35462 whole entry): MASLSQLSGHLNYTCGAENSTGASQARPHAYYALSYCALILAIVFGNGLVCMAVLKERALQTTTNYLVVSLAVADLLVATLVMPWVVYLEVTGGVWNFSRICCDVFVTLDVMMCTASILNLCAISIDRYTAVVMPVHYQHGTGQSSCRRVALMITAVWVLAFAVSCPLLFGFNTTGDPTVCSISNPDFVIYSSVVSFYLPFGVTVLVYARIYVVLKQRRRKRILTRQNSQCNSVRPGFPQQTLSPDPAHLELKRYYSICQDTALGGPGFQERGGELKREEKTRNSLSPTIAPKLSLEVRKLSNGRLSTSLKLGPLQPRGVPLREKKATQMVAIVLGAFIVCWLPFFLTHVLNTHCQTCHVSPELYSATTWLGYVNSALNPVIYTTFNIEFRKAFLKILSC

[3] = target: T2, Thyroid hormone receptor alpha (Rattus norvegicus) (UniProt P63059); assay: THYROID HORM Eurofins SafetyScreen44 (BI)
T2 sequence (whole entry): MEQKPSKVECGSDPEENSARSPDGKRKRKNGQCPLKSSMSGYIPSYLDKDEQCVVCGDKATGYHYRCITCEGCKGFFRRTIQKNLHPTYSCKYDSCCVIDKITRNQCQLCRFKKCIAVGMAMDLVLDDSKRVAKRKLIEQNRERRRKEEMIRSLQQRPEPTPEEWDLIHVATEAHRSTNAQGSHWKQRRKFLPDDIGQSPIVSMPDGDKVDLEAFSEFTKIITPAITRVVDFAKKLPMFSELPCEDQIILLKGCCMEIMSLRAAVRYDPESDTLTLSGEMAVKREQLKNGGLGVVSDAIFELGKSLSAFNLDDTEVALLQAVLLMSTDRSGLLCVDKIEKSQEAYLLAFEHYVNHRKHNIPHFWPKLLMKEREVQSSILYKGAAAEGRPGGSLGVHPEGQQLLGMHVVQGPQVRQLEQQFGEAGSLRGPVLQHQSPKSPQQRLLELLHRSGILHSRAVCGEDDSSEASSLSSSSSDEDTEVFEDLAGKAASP

[4] = target: Glutamate NMDA receptor (Rattus norvegicus) (UniProt P35439+Q00959+Q00960+Q00961+Q62645+Q8VHN2+Q9R1M7); assay: NMDAAGSI/RA Eurofins SafetyScreen44 (BI); details: filed as agonist, Compound concentration 10.0 uM
[5] = target: 5-hydroxytryptamine receptor 2B (Homo sapiens) (UniProt P41595); assay: 5HT2B/H AG Eurofins SafetyScreen44 (BI); details: filed as agonist, Compound concentration 10.0 uM
5-hydroxytryptamine receptor 2B (Homo sapiens), sequence (P41595 whole entry): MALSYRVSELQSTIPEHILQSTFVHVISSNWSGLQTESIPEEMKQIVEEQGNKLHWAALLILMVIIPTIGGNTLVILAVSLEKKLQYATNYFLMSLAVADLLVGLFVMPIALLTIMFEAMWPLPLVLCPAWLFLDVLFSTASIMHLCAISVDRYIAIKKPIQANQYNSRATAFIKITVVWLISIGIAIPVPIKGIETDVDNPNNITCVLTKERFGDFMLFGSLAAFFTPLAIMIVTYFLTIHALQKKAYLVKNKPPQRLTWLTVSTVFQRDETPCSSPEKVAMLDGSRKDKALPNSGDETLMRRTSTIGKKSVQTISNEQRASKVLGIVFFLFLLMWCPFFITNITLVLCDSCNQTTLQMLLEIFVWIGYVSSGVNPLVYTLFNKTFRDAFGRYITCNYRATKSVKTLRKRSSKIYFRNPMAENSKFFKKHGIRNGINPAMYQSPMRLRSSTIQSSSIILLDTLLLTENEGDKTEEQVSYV

Cc1cc(OCCC(C)(C)O)cc(C)c1-c1ccc(F)c2c1CC[C@H]2Oc1ccc2c(c1)OC[C@H]2CC(=O)O
residual activity [1]: 73% | residual activity [2]: 63% | residual activity ([3]; Compound concentration 0.3 uM): 97% | residual activity ([3]; Compound concentration 1.0 uM): 95% | residual activity ([3]; Compound concentration 3.0 uM): 77% | residual activity ([3]; Compound concentration 10.0 uM): 39.5% | residual activity ([3]; Compound concentration 30.0 uM): 2% | residual activity [4]: 89%

COCCCS(=O)(=O)c1cc(C)c(-c2ccc(F)c3c2CC[C@H]3Oc2ccc3c(c2)OC[C@H]3CC(=O)O)c(C)c1
residual activity [5]: 103%
